In ChEMBL document CHEMBL4811317, “Inhibitory activities of anthraquinone and xanthone derivatives against transthyretin amyloidogenesis” (Bioorg Med Chem, 2021):

Target: Transthyretin (Homo sapiens, UniProt P02766, V50M)
Assay: Inhibition of acid-mediated aggregation of TTR V30M mutant (unknown origin) expressed in Escherichia coli pretreated for 30 mins at pH 7 followed by protein dilution in acetate buffer and further incubated for 96 hrs at pH 4.6 by thioflavin-T fluorescence assay

SMILES | IC50
Nc1ccc(O)c2c1C(=O)c1c(O)c(S(=O)(=O)O)cc(N)c1C2=O | > 100 µM
O=C(O)c1cc(O)c2c(c1)C(=O)c1cccc(O)c1C2=O [RHEIN] | 12 µM
O=C1c2ccc(O)cc2C(=O)c2c1ccc(O)c2O | 12 µM
O=C1c2ccccc2C(=O)c2c(O)ccc(O)c21 [QUINIZARIN] | > 100 µM
O=C(O)c1ccc2oc3cc(Cl)ccc3c(=O)c2c1 | > 100 µM
O=C(O)c1ccc2oc3c(Cl)cccc3c(=O)c2c1 | 13 µM
O=C1c2cccc(O)c2C(=O)c2c(O)cc(CO)cc21 [ALOE-EMODIN] | > 100 µM
O=C(O)c1cc(Cl)c2oc3c(Cl)cccc3c(=O)c2c1 | 9.1 µM
O=C(O)c1ccc2c(=O)c3cccc(Cl)c3oc2c1 | 7.7 µM
O=C(O)c1ccc2oc3ccc(Cl)cc3c(=O)c2c1 | 12 µM
O=C(O)c1ccc2c(=O)c3ccc(Cl)cc3oc2c1 | 13 µM
